Laboratory results reported in patent EP1480941B1, “UREA DERIVATIVES AS HIV ASPARTYL PROTEASE INHIBITORS” (priority 2002, dated 2003).
Like-named read-outs stand apart in the source and are kept apart here.

Target: HIV protease (Human immunodeficiency virus type 1 group M subtype B, UniProt P04585)
Experiment: Enzymatic (fluorometric FRET) assay for determining the inhibition constant (Ki)
Format: biochemical
Settings: EDANS/DABCYL substrate, equation of Henderson
Description: Enzymatic assay for determining the inhibition constant (Ki) of synthetic compounds targeting the HIV protease
This is a fluorometric assay based on the cleavage by protease of a substrate carrying a donor group (EDANS) and an acceptor group (DABCYL) on each side of the cleavage site, interacting together through fluorescence resonance energy transfer (FRET) as described by Matayoshi et al. (Science 247:[…], 1990).
After calculation of Vo and Vi, the inhibition constant (Ki) of the compound is determined using the equation of Henderson: (Vo)/(Vi) = 1 + ([I])/(Kiapp) Where Ki = (Kiapp)/((1 + [S])/(Km)) [formula] where Vo = the enzyme's initial velocity Vi = the enzyme velocity in the presence of the inhibitory compound, [I] = inhibitor concentration, [S] = substrate concentration, Km = Michaelis-Menten constant and Kiapp = apparent Ki
Graphs are traced and the Ki determined using GraphPad Prism software v. 3.0.

| Structure (SMILES) | Ki (read-out: Ki) [nM] | further results |
| --- | --- | --- |
| Cc1ccc(S(=O)(=O)N(CC(C)C)C(CCCCNC(=N)NCc2ccccc2)C(=O)O)cc1 (racemic) [Example 30, Nα-isobutyl-Nα-(4-methylbenzenesulfonyl)-Nω-benzyl-DL-homoarginine] | > 300 | – |
| Cc1ccc(S(=O)(=O)N(CC(C)C)[C@@H](CCCCNC(=O)NCCc2ccccc2)C(=O)O)cc1 [Example 1, Nα-isobutyl-Nα-(4-methylbenzenesulfonyl)-Nε-(2'-phenethylaminocarbonyl)-L-lysine] | – | Ki (Ki): 204 nM |
| Cc1ccc(S(=O)(=O)N(CC(C)C)[C@@H](CCCCNC(=O)NCc2ccccn2)C(=O)O)cc1 [Example 3, Nα-isobutyl-Nα-(4-methylbenzenesulfonyl)-N∈-[N'-(2-picolyl)aminocarbonyl]-L-lysine] | > 300 | – |
| Cc1ccc(S(=O)(=O)N(CC(C)C)[C@@H](CCCCNC(=O)NCCc2ccc(O)cc2)C(=O)O)cc1 [Example 5, Nα-isobutyl-Nα-(4-methylbenzenesulfonyl)-N∈-[2'-(4-hydroxyphenethyl)aminocarbonyl]-L-lysine] | > 300 | – |
| Cc1ccc(S(=O)(=O)N(CC(C)C)[C@@H](CCCCNC(=O)N(CC(C)C)C2CCCCC2)C(=O)O)cc1 [Example 7, Nα-isobutyl-Nα-(4-methylbenzenesulfonyl)-N∈-[(N'-cyclohexyl-N'-isobutyl)aminocarbonyl]-L-lysine] | > 300 | – |
| Cc1ccc(S(=O)(=O)N(CC(C)C)[C@@H](CCCCNC(=O)N[C@@H](Cc2ccccc2)C(N)=O)C(=O)O)cc1 [Example 8, Nα-isobutyl-Nα-(4-methylbenzenesulfonyl)-N∈-[L-phenylalanylamide-N'a-carbonyl]-L-lysine] | – | Ki (Ki): 60 nM |
| Cc1ccc(S(=O)(=O)N(CC(C)C)[C@@H](CCCCNC(=O)N[C@H](Cc2ccccc2)C(N)=O)C(=O)O)cc1 [Example 9, Nα-isobutyl-Nα-(4-methylbenzenesulfonyl)-N∈-[D-phenylalanylamide-N'α-carbonyl]-L-lysine] | – | Ki (Ki): 131 nM |
| Cc1ccc(S(=O)(=O)N(CC(C)C)[C@@H](CCCCNC(=O)NNC(=O)c2ccccc2O)C(=O)O)cc1 [Example 10, Nα-isobutyl-Nα-(4-methylbenzenesulfonyl)-N∈-[N2-(2-hydroxybenzoyl)-hydrazino-N1-carbonyl]-L-lysine] | – | Ki (Ki): 55 nM |
| Cc1ccc(S(=O)(=O)N(CC(C)C)[C@@H](CCCCNC(=O)NNC(=O)c2ccncc2)C(=O)O)cc1 [Example 11, Nα-isobutyl-Nα-(4-methylbenzenesulfonyl)-N∈-[N2-(pyridine-4-carbonyl)-hydrazino-N1-carbonyl]-L-lysine] | – | Ki (Ki): > 300 nM |
| Cc1ccc(S(=O)(=O)N(CC(C)C)[C@@H](CCCCNC(=O)N[C@@H](Cc2ccccc2)C(=O)NCC(C)C)C(=O)O)cc1 [Example 12, Nα-isobutyl-Nα-(4-methylbenzenesulfonyl)-N∈-(L-phenylalanyl-N'-isobutylamide-N'α-carbonyl)-L-lysine] | – | Ki (Ki): 47 nM |
| Cc1ccc(S(=O)(=O)N(CC(C)C)[C@@H](CCCCNC(=O)N[C@@H](Cc2ccccc2)C(=O)Nc2ccccc2)C(=O)O)cc1 [Example 13, Nα-isobutyl-Nα-(4-methylbenzenesulfonyl)-N∈-(L-phenylalanyl-N'-phenylamide-N'α-carbonyl)-L-lysine] | – | Ki (Ki): 60 nM |
| Cc1ccc(S(=O)(=O)N(CC(C)C)C(CCCCNC(=S)NC2CCc3ccccc32)C(=O)O)cc1 [Example 14, (1S,TRS) Nα-isobutyl-Nα-(4-methylbenzenesulfonyl)-N∈-(indanyl-1'-aminothiocarbonyl)-S-lysine] | > 300 | – |
| Cc1ccc(S(=O)(=O)N(CC(C)C)[C@@H](CCCCNC(=O)NCCN2CCCCC2)C(=O)O)cc1 [Example 17, Nα-isobutyl-Nα-(4-methylbenzenesulfonyl)-N∈-[2'-(1-pyperidinyl)ethylaminocarbonyl]-L-lysine] | > 300 | – |
| COC(=O)[C@H](CCCCNC(=O)NCCc1ccccn1)N(CC(C)C)S(=O)(=O)c1ccc(C)cc1 [Example 19, Nα-isobutyl-Nα-(4-methylbenzenesulfonyl)-N∈-[(2'-pyridyl)ethylaminocarbonyl]-L-lysine methyl ester] | – | Ki (Ki): > 300 nM |
| Cc1ccc(S(=O)(=O)N(CC(C)C)[C@@H](CCCCNC(=O)Nc2nccc3ccccc23)C(=O)O)cc1 [Example 20, Nα-isobutyl-Nα-(4-methylbenzenesulfonyl)-N∈-(1'-isoquinolylaminocarbonyl)-L-lysine] | > 300 | – |
| Cc1ccc(S(=O)(=O)N(CC(C)C)[C@@H](CCCCNC(=O)N[C@@H]2c3ccccc3C[C@@H]2O)C(=O)O)cc1 [Example 22, (1S,1'R,2'S) Nα-isobutyl-Nα-(4-methylbenzenesulfonyl)-N∈-(cis-2'-hydroxyindanyl-1'-aminocarbonyl)-S-lysine] | > 300 | – |

| Structure (SMILES) | Ki (read-out: Ki) [nM] | further results |
| --- | --- | --- |
| Cc1ccc(S(=O)(=O)N(CC(C)C)[C@@H](CCCCNC(=O)N[C@H]2c3ccccc3C[C@H]2O)C(=O)O)cc1 [Example 23, (1S,1'S,2'R) Nα-isobutyl-Nα-(4-methylbenzenesulfonyl)-N∈-(cis-2'-hydroxyindanyl-1'-aminocarbonyl)-S-lysine] | > 300 | – |
| Cc1ccc(S(=O)(=O)N(CC(C)C)[C@@H](CCCCNC(=O)N[C@H]2CCc3ccccc32)C(=O)O)cc1 [Example 25, (15,1'S) Nα-isobutyl-Nα-(4-methylbenzenesulfonyl)-N∈-(indanyl-1'-aminocarbonyl)-S-lysine] | > 300 | – |
| Cc1ccc(S(=O)(=O)N(CC(C)C)[C@H](CCCCNC(=O)N[C@H]2CCc3ccccc32)C(=O)O)cc1 [Example 26, (1R,1'S) Nα-isobutyl-Nα-(4-methylbenzenesulfonyl)-N∈-(indanyl-1'-aminocarbonyl)-R-lysine] | > 300 | – |
| Cc1ccc(S(=O)(=O)N(CC(C)C)[C@H](CCCCNC(=O)N[C@@H]2CCc3ccccc32)C(=O)O)cc1 [Example 27, (1R,1'R) Nα-isobutyl-Nα-(4-methylbenzenesulfonyl)-N∈-(indanyl-1'-aminocarbonyl)-R-lysine] | – | Ki: > 300 nM |
| Cc1ccc(S(=O)(=O)N(CC(C)C)[C@@H](CCCCNC(=O)N(CCc2ccccc2)Cc2ccccc2)C(=O)O)cc1 [Example 31, Nα-isobutyl-Nα-(4-methylbenzenesulfonyl)-N∈-[(N'-benzyl-N'-phenethyl)aminocarbonyl]-L-lysine] | > 300 | – |
| Cc1ccc(S(=O)(=O)N(CC(C)C)[C@@H](CCCCNC(=O)N(CC(C)C)CC(C)C)C(=O)O)cc1 [Example 35, Nα-isobutyl-Nα-(4-methylbenzenesulfonyl)-N∈-(N',N'-diisobutylaminocarbonyl)-L-lysine] | > 300 | – |
| Cc1ccc(S(=O)(=O)N(CC(C)C)[C@H](CO)CCCCNC(=O)N(Cc2ccncc2)Cc2ccncc2)cc1 [Example 46, (2S) 2-N-isobutyl-2-N-(4-methylbenzenesulfonyl)-6-N-[N',N'-di-(4-picolyl)aminocarbonyl]-2,6-diaminohexanol] | > 300 | – |
| CC(C)CN([C@H](CO)CCCCNC(=O)N(Cc1ccncc1)Cc1ccncc1)S(=O)(=O)c1ccc(N)cc1 [Example 51, (2S) 2-N-(4-aminobenzenesulfonyl)-2-N-isobutyl-6-N [N',N'-di-(4-picolyl)aminocarbonyl]-2,6-diaminohexanol] | > 300 | – |
| Cc1ccc(S(=O)(=O)N(CC(C)C)[C@@H](CCCCNC(=O)N(Cc2ccccc2)Cc2cccc(N)c2)C(=O)O)cc1 [Example 58, Nα-isobutyl-Nα-(4-methylbenzenesulfonyl)-N∈-[N'-(3-aminobenzyl)-N'-benzylaminocarbonyl]-L-lysine] | > 300 | – |
| CC(C)CN([C@H](CO)CCCCNC(=O)N(Cc1cccnc1)Cc1cccc(F)c1)S(=O)(=O)c1ccc(N)cc1 [Example 72, (2S) 2-N-(4-aminobenzenesulfonyl)-2-N-isobutyl-6-N-[N'-(3-fluorobenzyl)-N'-(3-picolyl)aminocarbonyl]-2,6-diaminohexanol] | > 300 | – |
| CC(C)CN([C@H](CO)CCCCNC(=O)N(Cc1cccnc1)Cc1ccccc1F)S(=O)(=O)c1ccc(N)cc1 [Example 73, (2S) 2-N-(4-aminobenzenesulfonyl)-2-N-isobutyl-6-N-[N'-(2-fluorobenzyl)-N'-(3-picolyl)aminocarbonyl]-2,6-diaminohexanol] | > 300 | – |
| CC(C)CN([C@H](CO)CCCCNC(=O)N(Cc1ccccc1)Cc1ccsc1)S(=O)(=O)c1ccc(N)cc1 [Example 76, (2S) 2-N-(4-aminobenzenesulfonyl)-2-N-isobutyl-6-N-[N'-benzyl-N'-(3-thiophenemethyl)aminocarbonyl]-2,6-diaminohexanol] | 11 | – |
| COc1ccc(CNC(=O)NCCCC[C@@H](CO)N(CC(C)C)S(=O)(=O)c2ccc(N)cc2)cc1 [Example 77, (2S) 2-N-(4-aminobenzenesulfonyl)-2-N-isobutyl-6-N-(N'-4-methoxybenzylaminocarbonyl)-2,6-diaminohexanol] | > 300 | – |
| COc1cccc(OC)c1CNC(=O)NCCCC[C@@H](CO)N(CC(C)C)S(=O)(=O)c1ccc(N)cc1 [Example 78, (2S) 2-N-(4-aminobenzenesulfonyl)-2-N-isobutyl-6-N-(N'-2,6-dimethoxybenzylaminocarbonyl)-2,6-diaminohexanol] | > 300 | – |
| COc1ccc(CNC(=O)NCCCC[C@@H](CO)N(CC(C)C)S(=O)(=O)c2ccc(N)cc2)c(OC)c1 [Example 79, (2S) 2-N-(4-aminobenzenesulfonyl)-2-N-isobutyl-6-N-(N'-2,4-dimethoxybenzylaminocarbonyl)-2,6-diaminohexanol] | > 300 | – |
| COc1cc(CNC(=O)NCCCC[C@@H](CO)N(CC(C)C)S(=O)(=O)c2ccc(N)cc2)cc(OC)c1 [Example 80, (2S) 2-N-(4-aminobenzenesulfonyl)-2-N-isobutyl-6-N-(N'-3,5-dimethoxybenzylaminocarbonyl)-2,6-diaminohexanol] | > 300 | – |
